According to ChEMBL document CHEMBL1201862, “PubChem BioAssay data set” (2004):
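Interpolation was linear, between the two tested concentrations surrounding the appropriate level; five concentrations were tested over 48 hours in 96-well plates. GI50 is the concentration that inhibits growth by half.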 The source made the active and inactive calls. Rule as the data show it: active = GI50 up to about 1.1 µM and inactive = higher.

Tests used:
Assay in all cases: NCI-60 cell line screen, 48 h
[1] = test system: 786-0
[2] = test system: A549
[3] = test system: ACHN
[4] = test system: CAKI-1
[5] = test system: CCRF-CEM
[6] = test system: COLO 205
[7] = test system: DLD-1
[8] = test system: DMS-114
[9] = test system: DMS-273
[10] = test system: EKVX
[11] = test system: HCC 2998
[12] = test system: HCT-15
[13] = test system: HL-60
[14] = test system: HOP-18
[15] = test system: HOP-62
[16] = test system: HOP-92
[17] = test system: HT-29
[18] = test system: IGROV-1
[19] = test system: K562
[20] = test system: KM-20L2
[21] = test system: KM12
[22] = test system: LOX IMVI
[23] = test system: LXFL 529
[24] = test system: M14
[25] = test system: M19-MEL
[26] = test system: MOLT-4
[27] = test system: Malme-3M
[28] = test system: NCI-H23
[29] = test system: NCI-H460
[30] = test system: NCI-H522
[31] = test system: OVCAR-3
[32] = test system: OVCAR-4
[33] = test system: OVCAR-5
[34] = test system: OVCAR-8
[35] = test system: RPMI-8226
[36] = test system: RXF 393
[37] = test system: SF-268
[38] = test system: SF-295
[39] = test system: SF-539
[40] = test system: SK-MEL-28
[41] = test system: SK-MEL-2
[42] = test system: SK-MEL-5
[43] = test system: SK-OV-3
[44] = test system: SN12C
[45] = test system: SNB-19
[46] = test system: SNB-75
[47] = test system: SW-620
[48] = test system: TK-10
[49] = test system: U-251
[50] = test system: UACC-257
[51] = test system: UACC-62
[52] = test system: UO-31
[53] = test system: A498
[54] = test system: HCT-116
[55] = test system: MCF7
[56] = test system: NCI-H226
[57] = test system: NCI/ADR-RES
[58] = test system: SNB-78
[59] = test system: BT-549
[60] = test system: DU-145
[61] = test system: Hs-578T
[62] = test system: MDA-MB-231
[63] = test system: MDA-MB-435
[64] = test system: MDA-N
[65] = test system: PC-3
[66] = test system: SR
[67] = test system: T47D

`CC(=O)SCCC1c2[nH]c3ccccc3c2CCN1O` (centres undefined) was tested, and the GI50 [1] was > 100 µM (inactive), the GI50 [2] was > 100 µM (inactive) and the GI50 [3] was > 100 µM (inactive). The GI50 [4] was 59.7 µM (inactive), the GI50 [5] was 31.8 µM (inactive) and the GI50 [6] was > 100 µM (inactive). For the same compound, the GI50 [7] was > 100 µM (inactive), the GI50 [8] was 74.5 µM (inactive) and the GI50 [9] was 86.1 µM (inactive). The GI50 [10] was > 100 µM (inactive), the GI50 [11] was 85.1 µM (inactive) and the GI50 [12] was 71.6 µM. The GI50 [13] was 36.6 µM (inactive), the GI50 [14] was > 100 µM (inactive) and the GI50 [15] was > 100 µM (inactive). The GI50 [16] was 26.7 µM (inactive), the GI50 [17] was > 100 µM (inactive) and the GI50 [18] was > 100 µM (inactive). For the same compound, the GI50 [19] was 32.4 µM (inactive), the GI50 [20] was > 100 µM (inactive) and the GI50 [21] was 68.9 µM (inactive). For the same compound, the GI50 [22] was 49 µM (inactive), the GI50 [23] was 56.4 µM (inactive) and the GI50 [24] was > 100 µM (inactive). The GI50 [25] was > 100 µM (inactive), the GI50 [26] was 40.6 µM (inactive) and the GI50 [27] was > 100 µM (inactive). For the same compound, the GI50 [28] was > 100 µM (inactive), the GI50 [29] was 82.8 µM (inactive) and the GI50 [30] was 23.9 µM (inactive). The GI50 [31] was > 100 µM (inactive), the GI50 [32] was > 100 µM (inactive) and the GI50 [33] was 71.4 µM (inactive). For the same compound, the GI50 [34] was > 100 µM (inactive), the GI50 [35] was 35.2 µM (inactive) and the GI50 [36] was 78 µM (inactive). For the same compound, the GI50 [37] was > 100 µM (inactive), the GI50 [38] was > 100 µM (inactive) and the GI50 [39] was > 100 µM (inactive). For the same compound, the GI50 [40] was > 100 µM (inactive), the GI50 [41] was > 100 µM (inactive) and the GI50 [42] was 83 µM (inactive). For the same compound, the GI50 [43] was > 100 µM (inactive), the GI50 [44] was > 100 µM (inactive) and the GI50 [45] was > 100 µM (inactive). For the same compound, the GI50 [46] was 18.7 µM (inactive), the GI50 [47] was 28.1 µM (inactive) and the GI50 [48] was > 100 µM (inactive). For the same compound, the GI50 [49] was > 100 µM (inactive), the GI50 [50] was > 100 µM (inactive) and the GI50 [51] was > 100 µM (inactive). For the same compound, the GI50 [52] was > 100 µM (inactive).
In the case of `O=C(O)c1ccc(Nc2c3ccccc3nc3ccccc23)cc1`, the GI50 [53] is reported as 52.6 µM (inactive), the GI50 [2] is reported as 41.2 µM (inactive) and the GI50 [4] is reported as 49.9 µM (inactive). The GI50 [5] was 26.9 µM (inactive), the GI50 [6] was > 100 µM (inactive) and the GI50 [8] was > 100 µM (inactive). The GI50 [9] was 38.9 µM (inactive), the GI50 [10] was > 100 µM (inactive) and the GI50 [11] was > 100 µM (inactive). For the same compound, the GI50 [54] was 45 µM (inactive), the GI50 [12] was 64.4 µM and the GI50 [13] was 47.9 µM (inactive). The GI50 [14] was > 100 µM (inactive), the GI50 [15] was > 67.3 µM (inactive) and the GI50 [16] was > 65 µM (inactive). The GI50 [17] was 97.9 µM (inactive), the GI50 [18] was > 100 µM (inactive) and the GI50 [19] was 76.2 µM (inactive). For the same compound, the GI50 [20] was > 100 µM (inactive), the GI50 [21] was > 100 µM (inactive) and the GI50 [22] was 60.8 µM (inactive). For the same compound, the GI50 [25] was 66.7 µM (inactive), the GI50 [55] was 71.1 µM (inactive) and the GI50 [26] was 23.1 µM (inactive). For the same compound, the GI50 [27] was 43.3 µM (inactive), the GI50 [56] was 31.8 µM (inactive) and the GI50 [28] was > 72.3 µM (inactive). For the same compound, the GI50 [29] was 22.6 µM (inactive), the GI50 [30] was > 75.7 µM (inactive) and the GI50 [57] was > 76 µM (inactive). The GI50 [31] was > 100 µM (inactive), the GI50 [32] was > 100 µM (inactive) and the GI50 [33] was > 100 µM (inactive). The GI50 [34] was 64 µM (inactive), the GI50 [35] was 54.8 µM (inactive) and the GI50 [36] was > 100 µM (inactive). For the same compound, the GI50 [37] was 67.9 µM (inactive), the GI50 [38] was 45.5 µM (inactive) and the GI50 [39] was > 78.2 µM (inactive). For the same compound, the GI50 [40] was > 100 µM (inactive), the GI50 [41] was > 100 µM (inactive) and the GI50 [42] was > 68.1 µM (inactive). For the same compound, the GI50 [43] was > 100 µM (inactive), the GI50 [44] was 64.7 µM (inactive) and the GI50 [45] was > 86.7 µM (inactive). For the same compound, the GI50 [46] was > 83.9 µM (inactive), the GI50 [58] was 30.8 µM (inactive) and the GI50 [47] was 59.7 µM (inactive). The GI50 [49] was 51.6 µM (inactive), the GI50 [50] was > 100 µM (inactive) and the GI50 [51] was 47.4 µM (inactive). For the same compound, the GI50 [52] was 54.6 µM (inactive).
In the case of `COc1ccc(Cl)cc1NC(=O)c1cccc([N+](=O)[O-])c1O`, the GI50 [1] is reported as 16.8 µM (inactive), the GI50 [53] is reported as 5.7 µM (inactive) and the GI50 [2] is reported as 11.2 µM (inactive). For the same compound, the GI50 [3] was 12.4 µM (inactive), the GI50 [59] was 4.37 µM (inactive) and the GI50 [4] was 16.2 µM (inactive). For the same compound, the GI50 [5] was 16 µM (inactive), the GI50 [6] was 13.5 µM (inactive) and the GI50 [7] was 8.95 µM (inactive). For the same compound, the GI50 [60] was 23.7 µM (inactive), the GI50 [10] was 9.82 µM (inactive) and the GI50 [11] was 14 µM (inactive). The GI50 [54] was 16.6 µM (inactive), the GI50 [12] was 21.8 µM and the GI50 [13] was 19.1 µM (inactive). For the same compound, the GI50 [14] was 2.51 µM (inactive), the GI50 [15] was 13.4 µM (inactive) and the GI50 [16] was 3 µM (inactive). For the same compound, the GI50 [17] was 19.8 µM (inactive), the GI50 [61] was 17.5 µM (inactive) and the GI50 [18] was 8.34 µM (inactive). For the same compound, the GI50 [19] was 32.1 µM (inactive), the GI50 [20] was 15 µM (inactive) and the GI50 [21] was 19.5 µM (inactive). The GI50 [22] was 13.7 µM (inactive), the GI50 [23] was 8.43 µM (inactive) and the GI50 [24] was 24.4 µM (inactive). The GI50 [25] was 9.79 µM (inactive), the GI50 [55] was 20.9 µM (inactive) and the GI50 [62] was 24.8 µM (inactive). The GI50 [63] was 14.4 µM (inactive), the GI50 [64] was 19.8 µM (inactive) and the GI50 [26] was 16.8 µM (inactive). For the same compound, the GI50 [27] was 4.97 µM (inactive), the GI50 [56] was 15 µM (inactive) and the GI50 [28] was 10.4 µM (inactive). The GI50 [29] was 15.7 µM (inactive), the GI50 [30] was 6.49 µM (inactive) and the GI50 [57] was 10 µM (inactive). The GI50 [31] was 5.19 µM (inactive), the GI50 [32] was 10.2 µM (inactive) and the GI50 [33] was 27.8 µM (inactive). The GI50 [34] was 17.8 µM (inactive), the GI50 [65] was 9.14 µM (inactive) and the GI50 [35] was 5.07 µM (inactive). The GI50 [36] was 12 µM (inactive), the GI50 [37] was 17.9 µM (inactive) and the GI50 [38] was 17.8 µM (inactive). For the same compound, the GI50 [39] was 16.1 µM (inactive), the GI50 [40] was 11.7 µM (inactive) and the GI50 [41] was 4.17 µM (inactive). The GI50 [42] was 4 µM (inactive), the GI50 [43] was 24.7 µM (inactive) and the GI50 [44] was 12.6 µM (inactive). The GI50 [45] was 8.97 µM (inactive), the GI50 [46] was 17.8 µM (inactive) and the GI50 [58] was 19.4 µM (inactive). The GI50 [66] was 17.5 µM (inactive), the GI50 [47] was 22.7 µM (inactive) and the GI50 [67] was 9.25 µM (inactive). The GI50 [48] was 32.9 µM (inactive), the GI50 [49] was 11.9 µM (inactive) and the GI50 [50] was 15.2 µM (inactive). The GI50 [51] was 6.82 µM (inactive) and the GI50 [52] was 7.35 µM (inactive).
